Laboratory results as given in US8945595B2, “Insect repellent and attractants” (The Regents of the University of California, priority 2009, dated 2015).
“Also recorded” adds a separate entry of the source.

Experiments:
wild-type Drosophila [1] = assay: T-maze choice assay, avoidance behavior to CO2, wild-type flies; format: in vivo; conditions: 0.67% CO2; 1-hexanol 10^-1, 2,3-butanedione 10^-2
Description: (§1) (a) A t-maze is used to show preference to a test odor or to a solvent. Flies are starved 24 hrs prior to assay. All assays performed for 1-min in the dark. A negative preference index indicates avoidance. (a) Flies in a T-maze were offered a choice between a 15 ml tube infused with 0.1ml of CO2 prior to start of assay, and another that was infused with air. (b) wildtype and Or83b−/− flies were presented with CO2, a mixture of CO2 and 2,3-butanedione (d4on), or d4on alone. (c) Flies were exposed to 10 ul d4on 10^−2 for 1 min, allowed to recover for 2 min in clean air and then assayed for avoidance to CO2. A control exposure to 1 min of 2-methylphenol (2 mpol) at 10^−2 and then a recovery period of 2 min is also assayed for avoidance behavior to CO2. (d) Flies are exposed to d4on for 1 min, allowed to recover for 2 min, and then assayed for behavior to ethyl acetate (2AC). Behavior to 2AC without pre-exposure is also measured. […]
(§2) T-maze behavioral testing using Drosophila stress odour, CO2, and mixtures were using techniques known in the art, with some modifications. […] The avoidance response was calculated as a Preference Index (PI)=(number of flies in test arm−number of flies in control arm)/(total number of flies in assay). […] The avoidance response was calculated as a Preference Index (PI)=(number of flies in test arm−number of flies in control arm)/(total number of flies in assay). […]

wild-type Drosophila [2] = assay: T-maze assay, avoidance to Drosophila stress odour (dSO); format: in vivo; conditions: odourant added to dSO
Description: T-maze behavior assay: a, Mean Preference Index (PI) of wild-type flies, given a choice between room air in 15 ml tube and either 0.1 ml of pure CO2 in a 15 ml tube (CO2), or binary mixtures of 0.1 ml pure CO2 and 1-hexanol (CO2+6ol) at 10^−1 dilution or 2,3-butanedione (CO2+d4on) at 10^−2 dilution, also in 15 ml tubes (see Methods). b, Mean PI of mutant flies given choices as in a. c, Mean PI of wild-type flies given choices between room air and odour collected from 70 untreated flies (mock), or 70 vortexed “emitter” flies of Drosophila stress odour (dSO), or mixtures of dSO with indicated odourants. n=6-9 trials (˜40 flies each), error bars=s.e.m. (T-test, *P<0.0001, **P<0.005, ***P<0.05).
T-maze behavioral testing using Drosophila stress odour, CO2, and mixtures were using techniques known in the art, with some modifications. In particular, the entire headspace from 15 ml capped “emitter” or “mock” fly tubes was withdrawn using fresh syringes and needles and infused into fresh capped 15 ml plastic tubes immediately prior to use in the T-maze. […] The avoidance response was calculated as a Preference Index (PI)=(number of flies in test arm−number of flies in control arm)/(total number of flies in assay). […] The avoidance response was calculated as a Preference Index (PI)=(number of flies in test arm−number of flies in control arm)/(total number of flies in assay). […]

Or83b2 mutant flies = assay: T-maze choice assay, avoidance behavior to CO2, Or83b2 mutant flies; format: in vivo, Drosophila; conditions: odourant with CO2
Description: as §1, §2

Structure (SMILES)	avoidance behavior to CO2 (Preference Index) (wild-type Drosophila [1])	avoidance behavior to dSO (Preference Index) (wild-type Drosophila [2])	avoidance behavior to CO2 (Preference Index) (Or83b2 mutant flies)
CCCCCCO [1-hexanol]	reduction in mean avoidance behavior	significantly reduced avoidance behavior	significantly reduced
CC(=O)C(C)=O [2,3-butanedione]	reduction in mean avoidance behavior; also recorded: abolished	significantly reduced avoidance behavior; also recorded: completely abolished	significantly reduced
